One assay concerns the target T1, human μ opiate receptor (Homo sapiens, UniProt P35372).
T1 construct: purchased PerkinElmer Life Sciences, Zaventem, Belgium RB-HOM; host or cells: CHO-K1 cells (membrane preparation)
The assay is described as follows: Affinity for the human μ opiate receptor ([3H]-naloxone displacement, CHO-K1 receptor membrane preparation, SPA). Format: binding. The note with it: test concentration of 1 μM; read-out: μ (binding on the μ opioid receptor, % inhibition). The procedure, abridged: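 Displacement of 1 nmol/l [3H]-naloxone measured by SPA counting after 90 min at room temperature, using human μ receptor CHO-K1 membrane preparation in Tris-HCl buffer with 0.06% BSA. Test substances at 1 μmol/l give % inhibition; dilution series yield IC50, then Ki (Cheng-Prusoff); non-specific binding with 100 μmol/l naloxone.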

Assay [1] has as its target T2, serotonin (5-HT) reuptake (Rattus norvegicus, UniProt P31652).
T2 construct: synaptosomes are freshly isolated from areas of the rat brain; from tissue; host or cells: rat brain synaptosomes (P2 fraction)
The assay is described as follows: Inhibition of serotonin (5HT) reuptake in synaptosomes from rat brain. Format: biochemical. The conditions noted are these: test concentration of 10 μM; read-out: 5-HT (inhibition of reuptake of serotonin, % inhibition). In outline:
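Compounds screened at 10 μM and reported as percent inhibition of serotonin uptake. Uptake measured in a freshly prepared P2 synaptosomal fraction from rat brain.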

T1 sequence (P35372 whole entry): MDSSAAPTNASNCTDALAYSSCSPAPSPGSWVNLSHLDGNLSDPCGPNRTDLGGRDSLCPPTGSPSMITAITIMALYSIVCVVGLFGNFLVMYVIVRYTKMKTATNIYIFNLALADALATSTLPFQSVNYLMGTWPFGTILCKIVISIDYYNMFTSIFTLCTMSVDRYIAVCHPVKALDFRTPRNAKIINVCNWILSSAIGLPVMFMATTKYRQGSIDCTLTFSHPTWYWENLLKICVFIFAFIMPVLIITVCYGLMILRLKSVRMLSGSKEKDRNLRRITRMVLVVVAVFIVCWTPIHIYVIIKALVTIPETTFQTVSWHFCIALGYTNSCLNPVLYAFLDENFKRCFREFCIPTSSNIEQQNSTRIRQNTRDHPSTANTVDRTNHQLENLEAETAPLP
T2 sequence (P31652 whole entry): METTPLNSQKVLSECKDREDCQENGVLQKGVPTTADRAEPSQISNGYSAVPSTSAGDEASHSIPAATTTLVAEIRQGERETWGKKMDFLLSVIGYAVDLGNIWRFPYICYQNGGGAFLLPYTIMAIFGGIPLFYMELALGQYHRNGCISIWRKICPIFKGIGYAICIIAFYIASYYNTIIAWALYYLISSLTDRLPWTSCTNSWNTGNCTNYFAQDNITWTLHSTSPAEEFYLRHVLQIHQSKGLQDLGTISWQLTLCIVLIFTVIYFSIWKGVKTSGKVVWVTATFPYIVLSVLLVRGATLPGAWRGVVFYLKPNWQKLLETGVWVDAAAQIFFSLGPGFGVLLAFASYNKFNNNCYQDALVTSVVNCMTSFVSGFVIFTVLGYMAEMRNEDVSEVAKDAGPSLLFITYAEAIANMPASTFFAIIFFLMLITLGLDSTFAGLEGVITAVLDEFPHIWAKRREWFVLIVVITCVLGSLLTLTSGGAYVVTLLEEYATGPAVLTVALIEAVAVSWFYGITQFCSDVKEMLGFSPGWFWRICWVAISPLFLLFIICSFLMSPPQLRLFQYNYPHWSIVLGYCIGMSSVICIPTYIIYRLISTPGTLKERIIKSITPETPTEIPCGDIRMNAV

Usually inhibition stands for the relative decrease from the control value, in per cent. For the molecule `CN(C)C(c1cccs1)C1CCC(CNC(=O)COC2CCN(S(=O)(=O)c3ccccc3)C2)CC1` (stereo not drawn) [Example 36, N-((4-((dimethylamino)(thiophen-2-yl)methyl)cyclohexyl)methyl)-2-(1-(phenylsulfonyl)pyrrolidin-3-yloxy)acetamide], the inhibition at 1 µM at human μ opiate receptor is 96%. In addition, the inhibition at 10 µM in assay [1] worked out at 102%.
Turning to `CN(C)C(c1cccs1)C1CCC(CNC(=O)COC2CCN(S(=O)(=O)c3ccc(Cl)cc3)C2)CC1` (stereo not drawn) [Example 54, 2-(1-(4-chlorophenylsulfonyl)pyrrolidin-3-yloxy)-N-((4-((dimethylamino)(thiophen-2-yl)methyl)cyclohexyl)methyl)acetamide], the inhibition at 1 µM on human μ opiate receptor amounted to 95%. In addition, the inhibition at 10 µM in assay [1] came to 84%.
Consider `COc1cc(C)c(S(=O)(=O)N(C)CCOCC(=O)NCCC2CCC(C(c3cccs3)N(C)C)CC2)c(C)c1C` (stereo not drawn) [Example 52, N-(2-(4-((dimethylamino)(thiophen-2-yl)methyl)cyclohexyl)ethyl)-2-(2-(4-methoxy-N,2,3,6-tetramethylphenylsulfonamido)ethoxy)acetamide], for which the inhibition at 1 µM at human μ opiate receptor is 95%. The inhibition at 10 µM in assay [1] came out at 91%.
In the same order, the values of `CN(C)C(c1ccccc1)C1CCC(CNC(=O)COC2CCN(S(=O)(=O)c3ccc(Cl)cc3)C2)CC1` (stereo not drawn) [Example 81, 2-(1-(4-chlorophenylsulfonyl)pyrrolidin-3-yloxy)-N-((4-((dimethylamino)(phenyl)methyl)cyclohexyl)methyl)acetamide] are 91% and 91%.
For `CN(C)C(c1ccccc1)C1CCC(NC(=O)COC2CCCCC2N(C)S(=O)(=O)c2ccc(Cl)c(Cl)c2)CC1` (stereo not drawn) [Example 39, 2-(2-(3,4-dichloro-N-methylphenylsulfonamido)cyclohexyloxy)-N-(4-((dimethylamino)(phenyl)methyl)cyclohexyl)acetamide], at human μ opiate receptor, the inhibition at 1 µM turned out to be 96%. The inhibition at 10 µM in assay [1] was determined as 91%.
In the same order, the values of `CN(C)C(c1cccs1)C1CCC(CNC(=O)COCCN(C)S(=O)(=O)c2ccc(Cl)cc2)CC1` (stereo not drawn) [Example 55, 2-(2-(4-chloro-N-methylphenylsulfonamido)ethoxy)-N-((4-((dimethylamino)(thiophen-2-yl)methyl)cyclohexyl)methyl)acetamide] are 95% and 92%.
The matching figures for `COc1cc(C)c(S(=O)(=O)N2CCC(OCC(=O)NCC3CCC(C(c4cccs4)N(C)C)CC3)C2)c(C)c1C` (stereo not drawn) [Example 58, N-((4-((dimethylamino)(thiophen-2-yl)methyl)cyclohexyl)methyl)-2-(1-(4-methoxy-2,3,6-trimethylphenylsulfonyl)pyrrolidin-3-yloxy)acetamide]: 95% and 94%.
As to `CN(C)C(c1ccccc1)C1CCC(NC(=O)COCCN(C)S(=O)(=O)c2c(Cl)cc(Cl)cc2Cl)CC1` (stereo not drawn) [Example 34, N-(4-((dimethylamino)(phenyl)methyl)cyclohexyl)-2-(2-(2,4,6-trichloro-N-methylphenylsulfonamido)ethoxy)acetamide], the inhibition at 1 µM on human μ opiate receptor was 96%. For the same molecule, the inhibition at 10 µM in assay [1] came out at 79%.
The matching figures for `CN(C)C(c1cccs1)C1CCC(CCNC(=O)COCCN(C)S(=O)(=O)c2ccc(F)cc2)CC1` (stereo not drawn) [Example 85, N-(2-(4-((dimethylamino)(thiophen-2-yl)methyl)cyclohexyl)ethyl)-2-(2-(4-fluoro-N-methylphenylsulfonamido)ethoxy)acetamide]: 92% and 98%.
The matching figures for `COc1ccc(S(=O)(=O)N2CCC(OCC(=O)NCCC3CCC(C(c4cccs4)N(C)C)CC3)C2)cc1OC` (stereo not drawn) [Example 94, 2-(1-(3,4-dimethoxyphenylsulfonyl)pyrrolidin-3-yloxy)-N-(2-(4-((dimethylamino)(thiophen-2-yl)methyl)cyclohexyl)ethyl)acetamide]: 93% and 88%.
`COc1cc(C)c(S(=O)(=O)N2CCCC(OCC(=O)NCC3CCC(C(c4cccs4)N(C)C)CC3)C2)c(C)c1C` (stereo not drawn) [Example 60, N-((4-((dimethylamino)(thiophen-2-yl)methyl)cyclohexyl)methyl)-2-(1-(4-methoxy-2,3,6-trimethylphenylsulfonyl)piperidin-3-yloxy)acetamide]: the inhibition at 1 µM at human μ opiate receptor amounted to 95%. Also, the inhibition at 10 µM in assay [1] stood at 92%.
Consider `COc1cc(C)c(S(=O)(=O)N2CCC(OCC(=O)NCCC3CCC(C(c4cccs4)N(C)C)CC3)C2)c(C)c1C` (stereo not drawn) [Example 74, N-(2-(4-((dimethylamino)(thiophen-2-yl)methyl)cyclohexyl)ethyl)-2-(1-(4-methoxy-2,3,6-trimethylphenylsulfonyl)pyrrolidin-3-yloxy)acetamide], for which, on human μ opiate receptor, the inhibition at 1 µM stood at 90%. The inhibition at 10 µM in assay [1] was found to be 98%.
In the same order, the values of `COc1cc(C)c(S(=O)(=O)N2CCN(CCOCC(=O)NCC3CCC(C(c4ccccc4)N(C)C)CC3)CC2)c(C)c1C` (stereo not drawn) [Example 61, N-((4-((dimethylamino)(phenyl)methyl)cyclohexyl)methyl)-2-(2-(4-(4-methoxy-2,3,6-trimethylphenylsulfonyl)piperazin-1-yl)ethoxy)acetamide] are 95% and 95%.
The matching figures for `COc1ccc(S(=O)(=O)N2Cc3ccccc3CC2COCC(=O)NCCC2CCC(C(c3cccs3)N(C)C)CC2)cc1` (stereo not drawn) [Example 48, N-(2-(4-((dimethylamino)(thiophen-2-yl)methyl)cyclohexyl)ethyl)-2-((2-(4-methoxyphenylsulfonyl)-1,2,3,4-tetrahydroisoquinolin-3-yl)methoxy)acetamide]: 96% and 101%.
In the same order, the values of `COc1ccc(S(=O)(=O)N2CCCCC2COCC(=O)NCC2CCC(C(c3ccccc3)N(C)C)CC2)cc1` (stereo not drawn) [Example 88, N-((4-((dimethylamino)(phenyl)methyl)cyclohexyl)methyl)-2-((1-(4-methoxyphenylsulfonyl)piperidin-2-yl)methoxy)acetamide] are 94% and 95%.
For the molecule `CN(C)C(c1cccs1)C1CCC(CCNC(=O)COCCN(C)S(=O)(=O)c2ccc(Cl)cc2)CC1` (stereo not drawn) [Example 37, 2-(2-(4-chloro-N-methylphenylsulfonamido)ethoxy)-N-(2-(4-((dimethylamino)(thiophen-2-yl)methyl)cyclohexyl)ethyl)acetamide], the inhibition at 1 µM on human μ opiate receptor stood at 96%. Besides, in assay [1], the inhibition at 10 µM is 90%.
In the same order, the values of `Cc1cc(C)c(S(=O)(=O)N2CCC(OCC(=O)NC3CCC(C(c4ccccc4)N(C)C)CC3)C2)c(C)c1` (stereo not drawn) [Example 64, N-(4-((dimethylamino)(phenyl)methyl)cyclohexyl)-2-(1-(mesitylsulfonyl)pyrrolidin-3-yloxy)acetamide] are 94% and 83%.
The matching figures for `Cc1ccc(S(=O)(=O)N2CCC(OCC(=O)NCC3CCC(C(c4cccs4)N(C)C)CC3)C2)cc1` (stereo not drawn) [Example 68, N-((4-((dimethylamino)(thiophen-2-yl)methyl)cyclohexyl)methyl)-2-(1-tosylpyrrolidin-3-yloxy)acetamide]: 93% and 82%.
The matching figures for `CN(C)C(c1ccccc1)C1CCC(CNC(=O)COCCN(C)S(=O)(=O)c2ccc(OC(F)(F)F)cc2)CC1` (stereo not drawn) [Example 53, N-((4-((dimethylamino)(phenyl)methyl)cyclohexyl)methyl)-2-(2-(N-methyl-4-(trifluoromethoxy)phenylsulfonamido)ethoxy)acetamide]: 95% and 92%.
Turning to `CN(C)C(c1cccs1)C1CCC(CCNC(=O)COCCN(C)S(=O)(=O)c2ccc(OC(F)(F)F)cc2)CC1` (stereo not drawn) [Example 65, N-(2-(4-((dimethylamino)(thiophen-2-yl)methyl)cyclohexyl)ethyl)-2-(2-(N-methyl-4-(trifluoromethoxy)phenylsulfonamido)ethoxy)acetamide], the inhibition at 1 µM on human μ opiate receptor was 96%. Moreover, the inhibition at 10 µM in assay [1] was determined as 95%.
The matching figures for `COc1ccc(S(=O)(=O)N2CCCCC2COCC(=O)NCC2CCC(C(c3cccs3)N(C)C)CC2)cc1` (stereo not drawn) [Example 45, N-((4-((dimethylamino)(thiophen-2-yl)methyl)cyclohexyl)methyl)-2-((1-(4-methoxyphenylsulfonyl)piperidin-2-yl)methoxy)acetamide]: 96% and 91%.
Consider `COc1ccc(S(=O)(=O)N2Cc3ccccc3CC2COCC(=O)NC2CCC(C(c3ccccc3)N(C)C)CC2)cc1` (stereo not drawn) [Example 38, N-(4-((dimethylamino)(phenyl)methyl)cyclohexyl)-2-((2-(4-methoxyphenylsulfonyl)-1,2,3,4-tetrahydroisoquinolin-3-yl)methoxy)acetamide], for which the inhibition at 1 µM at human μ opiate receptor was 96%. The inhibition at 10 µM in assay [1] turned out to be 61%.
With `Cc1ccc(S(=O)(=O)N(C)CCOCC(=O)NCCC2CCC(C(c3cccs3)N(C)C)CC2)cc1` (stereo not drawn) [Example 82, N-(2-(4-((dimethylamino)(thiophen-2-yl)methyl)cyclohexyl)ethyl)-2-(2-(N,4-dimethylphenylsulfonamido)ethoxy)acetamide], on human μ opiate receptor, the inhibition at 1 µM was found to be 95%. In addition, the inhibition at 10 µM in assay [1] came out at 85%.
The matching figures for `COc1cc(C)c(S(=O)(=O)N2CCC(OCC(=O)NC3CCC(C(c4cccs4)N(C)C)CC3)CC2)c(C)c1C` (stereo not drawn) [Example 1, N-(4-((dimethylamino)(thiophen-2-yl)methyl)cyclohexyl)-2-(1-(4-methoxy-2,3,6-trimethylphenylsulfonyl)piperidin-4-yloxy)acetamide]: 100% and 94%.
